Reference: patent publication EP4803080A1, “METHOD FOR TREATING LEUKEMIA” (Shenzhen TargetRx Co., Ltd., priority 2023, dated 2025)

What was measured:
Ba/F3 BCR-ABL1 E255K = assay: Cell growth inhibitory activity test (CellTiter-Glo); format: cell-based; details: Mus musculus, BaF3, 72 hours
Excerpt: (§1) The inhibitory effects of the compounds of the examples on the activity of Ba/F3 parental cells, Ba/F3 Bcr-Abl wild-type and mutant cells were detected.
(§2) This test used the Celltiter-Glo (CTG) kit (a homogeneous method for cell viability detection) provided by Promega to determine the cell viability of cultured cells by quantifying ATP. Ba/F3 parental cells were purchased from RIKEN BRC, catalog number RCB0805; other cells containing BCR-ABL1 wild-type and mutants were monoclonal engineered cell lines obtained by transfecting Ba/F3 parental cells with lentiviral plasmids containing WT or corresponding mutations of BCR-ABL1.
(§3) The steps for cell viability detection are as follows: • a) Collect cells in the logarithmic growth phase, prepare a cell suspension and count the cells to calculate the cell concentration. • b) After diluting the cell suspension to the desired concentration, add it to the inner wells of the 96-well plate, and add PBS to the edge wells. Wells containing only culture medium without cells serve as blank controls. • c) In addition to the cell plate used for compound analysis, prepare another 96-well plate as the T0 plate, adding 3-6 blank wells and 3-6 cell wells. Perform CTG assay the next day to measure cell viability, which serves as the T0 viability value for the cells. • d) Place the cell plate in a 37°C, 5% CO2 incubator and culture overnight. • e) The next day, add gradient-diluted compounds at various concentrations, and place the cell plate in a 37°C, 5% CO2 incubator for 72 hours.
(§4) The following nonlinear fitting formula was used to obtain the IC50 (half maximal inhibitory concentration) of the compounds: Y = Bottom + (Top−Bottom)/(1+10(LogIC50−X)∗HillSlope) [formula] • Y: Inhibition rate (%inhibition) • X: Logarithmic value of compound concentration • Top: Maximum response • Bottom: Baseline response • HillSlope: Slope of the curve

Ba/F3 BCR-ABL1 E255V = assay: as above; format: cell-based; details: Mus musculus, BaF3, 72 hours
Excerpt: as §1, §2, §3, §4

Ba/F3 parental cells = assay: as above; format: cell-based; details: Mus musculus, BaF3, 72 hours
Excerpt: as §1, §2, §3, §4

Ba/F3 BCR-ABL1 E459K = assay: as above; format: cell-based; details: Mus musculus, BaF3, 72 hours
Excerpt: as §1, §2, §3, §4

Ba/F3 BCR-ABL1 M244V = assay: as above; format: cell-based; details: Mus musculus, BaF3, 72 hours
Excerpt: as §1, §2, §3, §4

Ba/F3 BCR-ABL1 F359V = assay: as above; format: cell-based; details: Mus musculus, BaF3, 72 hours
Excerpt: as §1, §2, §3, §4

Ba/F3 BCR-ABL1 G250E = assay: as above; format: cell-based; details: Mus musculus, BaF3, 72 hours
Excerpt: as §1, §2, §3, §4

Ba/F3 BCR-ABL1 F317L = assay: as above; format: cell-based; details: Mus musculus, BaF3, 72 hours
Excerpt: as §1, §2, §3, §4

Ba/F3 BCR-ABL1 P223S = assay: as above; format: cell-based; details: Mus musculus, BaF3, 72 hours
Excerpt: as §1, §2, §3, §4

Ba/F3 BCR-ABL1 V299L = assay: as above; format: cell-based; details: Mus musculus, BaF3, 72 hours
Excerpt: as §1, §2, §3, §4

Ba/F3 BCR-ABL1 Q252H = assay: as above; format: cell-based; details: Mus musculus, BaF3, 72 hours
Excerpt: as §1, §2, §3, §4

Ba/F3 BCR-ABL1 M351T = assay: as above; format: cell-based; details: Mus musculus, BaF3, 72 hours
Excerpt: as §1, §2, §3, §4

Ba/F3 BCR-ABL1 Y253H = assay: as above; format: cell-based; details: Mus musculus, BaF3, 72 hours
Excerpt: as §1, §2, §3, §4

Ba/F3 BCR-ABL1 WT = assay: as above; format: cell-based; details: Mus musculus, BaF3, 72 hours
Excerpt: as §1, §2, §3, §4

Ba/F3 BCR-ABL1 I502L = assay: as above; format: cell-based; details: Mus musculus, BaF3, 72 hours
Excerpt: as §1, §2, §3, §4

Ba/F3 BCR-ABL1 H396P = assay: as above; format: cell-based; details: Mus musculus, BaF3, 72 hours
Excerpt: as §1, §2, §3, §4

Ba/F3 BCR-ABL1 E355G = assay: as above; format: cell-based; details: Mus musculus, BaF3, 72 hours
Excerpt: as §1, §2, §3, §4

[1] = Phase I clinical trial: pharmacokinetics; format: in vivo, humans; details: CML patients, oral
Excerpt: • 1) To preliminarily evaluate the pharmacokinetic characteristics of Compound A after multiple oral administrations; • 2) To preliminarily evaluate the antitumor effects of Compound A.
This study is a single-arm, open-label, dose-escalation and dose-expansion Phase I clinical trial. The trial plans to enroll patients with chronic myeloid leukemia (CML) who have developed resistance or intolerance after prior treatment with BCR-ABL1 tyrosine kinase inhibitor(s) (TKIs).
The dose-escalation phase of this trial consists of about 8 dose groups, with oral administration under fasting conditions. Subjects in all dose groups will receive a single dose on Day 1 (D1), followed by pharmacokinetic (PK) and tolerability observations. If no drug-related adverse events of Grade 3 or higher occur during the single-dose period, the subject will enter the multiple-dose period (i.e., the treatment period) after 3-5 days (for the first dose group, the multiple-dose period begins 5 days after the first dose [i.e., starting on Day 6]; for subsequent dose groups, the interval will be determined based on available tolerability and PK data). […] The dosing frequency for subjects in subsequent dose groups after entering the multiple-dose period will be determined based on available PK and tolerability data. […]

[2] = tested on: Ba/F3 BCR-ABL1 E255V/T315I; assay: Cell growth inhibition activity test, single agents and combinations (CellTiter-Glo, Chou-Talalay); format: cell-based; details: Mus musculus, BaF3; single agent; E255V/T315I; 72 hours; read-out: IC50
Procedure: A series of cell lines expressing BCR-ABL1 single mutations and compound mutations were constructed based on the Ba/F3 mouse pro-B cell line.
This assay utilized the CellTiter-Glo (CTG) kit provided by Promega, which is a homogeneous method for cell viability detection, measuring the viability of cultured cells by quantifying ATP. Cells were seeded in 96-well plates and treated with different concentrations of test substances. […] At the end of the treatment, CTG reagent (CellTiter-Glo kit) was added according to the manufacturer's instructions to detect cell viability values. Plates were read on a microplate reader (Biotek cytation 3.0). IC50 values were calculated using GraphPad Prism 7.0 software.

SMILES: O=C(Nc1ccc(OC(F)(F)Cl)cc1)c1cnc(N2CC[C@@H](F)C2)c(-c2cnccn2)c1 [Compound A, (R)-N-(4-(chlorodifluoromethoxy)phenyl)-6-(3-fluoropyrrolidin-1-yl)-5-(pyrazin-2-yl)nicotinamide]
- IC50 (Ba/F3 BCR-ABL1 E255K): 1.01 ± 0.08 nM
- IC50 (Ba/F3 BCR-ABL1 E255V): 2.73 ± 0.02 nM
- IC50 (Ba/F3 parental cells): 10 µM
- IC50 (Ba/F3 BCR-ABL1 E459K): 3.8 ± 0.22 nM
- IC50 (Ba/F3 BCR-ABL1 M244V): 26.8 ± 2.26 nM
- IC50 (Ba/F3 BCR-ABL1 F359V): 89.4 ± 8.91 nM
- IC50 (Ba/F3 BCR-ABL1 G250E): 2.49 ± 0.18 nM
- IC50 (Ba/F3 BCR-ABL1 F317L): 17.2 ± 0.99 nM
- IC50 (Ba/F3 BCR-ABL1 P223S): 43.7 ± 4.88 nM
- IC50 (Ba/F3 BCR-ABL1 V299L): 72.3 ± 5.87 nM
- IC50 (Ba/F3 BCR-ABL1 Q252H): 2.38 ± 0.43 nM
- IC50 (Ba/F3 BCR-ABL1 M351T): 3.52 ± 0.5 nM
- IC50 (Ba/F3 BCR-ABL1 Y253H): 5.6 ± 0.53 nM
- IC50 (Ba/F3 BCR-ABL1 WT): 4.11 ± 0.05 nM
- IC50 (Ba/F3 BCR-ABL1 I502L): 94.8 ± 1.06 nM
- IC50 (Ba/F3 BCR-ABL1 H396P): 11.7 ± 0.28 nM
- IC50 (Ba/F3 BCR-ABL1 E355G): 52.6 ± 0.42 nM
- exposure versus dose [1]: dose-proportional
- half-life ([1]; human, in vivo, read-out: terminal half-life): > 4.17 days
- IC50 [2]: 151 nM
